Read-outs that look alike come from different tables or passages of the source. Some results are limits rather than exact numbers.

The values that follow come from patent US11197862B2, “Methods of preventing toxicity of platinum drugs” (XOMICS BIOPHARMA, INC., priority 2015, dated 2021).

In one data set the target is T1, OCT1 (Homo sapiens, UniProt O15245).
T1 sequence (O15245 1-554): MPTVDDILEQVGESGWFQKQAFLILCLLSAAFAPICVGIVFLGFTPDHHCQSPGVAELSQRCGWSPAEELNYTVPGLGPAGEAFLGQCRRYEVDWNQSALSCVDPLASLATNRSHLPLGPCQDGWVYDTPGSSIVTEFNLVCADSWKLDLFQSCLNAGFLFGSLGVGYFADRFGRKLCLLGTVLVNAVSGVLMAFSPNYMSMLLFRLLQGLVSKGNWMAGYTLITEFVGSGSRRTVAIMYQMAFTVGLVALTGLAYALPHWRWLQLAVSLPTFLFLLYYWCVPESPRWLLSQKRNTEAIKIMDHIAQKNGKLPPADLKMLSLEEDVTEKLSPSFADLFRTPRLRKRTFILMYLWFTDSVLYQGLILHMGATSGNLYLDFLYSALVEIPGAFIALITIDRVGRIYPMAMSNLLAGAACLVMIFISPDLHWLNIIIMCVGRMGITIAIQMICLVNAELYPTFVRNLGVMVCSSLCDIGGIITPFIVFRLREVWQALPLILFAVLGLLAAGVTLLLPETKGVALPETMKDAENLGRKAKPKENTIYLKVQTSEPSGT
As to the kind of experiment: Inhibition of OCT1-mediated oxaliplatin transport in human serum or 4% BSA HBSS.

Data set [1] concerns the target T2, OCT2 (Homo sapiens, UniProt O15244).
T2 sequence (O15244 1-555): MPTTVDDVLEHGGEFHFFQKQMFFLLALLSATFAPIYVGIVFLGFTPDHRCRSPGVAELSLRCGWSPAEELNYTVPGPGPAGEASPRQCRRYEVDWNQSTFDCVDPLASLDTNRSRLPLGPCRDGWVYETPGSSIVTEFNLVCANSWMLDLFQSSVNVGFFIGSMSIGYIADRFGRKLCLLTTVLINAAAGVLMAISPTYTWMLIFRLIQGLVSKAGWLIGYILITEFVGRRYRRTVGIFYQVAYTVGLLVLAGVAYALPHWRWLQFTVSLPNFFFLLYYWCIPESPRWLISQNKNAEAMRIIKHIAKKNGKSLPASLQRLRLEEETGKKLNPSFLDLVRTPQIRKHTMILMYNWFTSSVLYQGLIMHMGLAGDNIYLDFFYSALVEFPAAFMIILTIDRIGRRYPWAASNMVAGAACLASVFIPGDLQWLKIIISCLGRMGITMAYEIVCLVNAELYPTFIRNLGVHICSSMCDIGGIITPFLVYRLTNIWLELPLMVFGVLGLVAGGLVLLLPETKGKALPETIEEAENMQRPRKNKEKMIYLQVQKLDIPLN
The experiment in a line: Inhibition of OCT2-mediated metformin uptake in transfected MDCK-II cells.

The conditions of data set [2]: cited from earlier work; for Plasma protein binding (%): published data.
Data set [3] addresses T2, OCT2. The experiment in a line: Inhibition of OCT2-mediated oxaliplatin uptake in transfected MDCK-II cells (protein-free HBSS). As to conditions: for inhibition at 30 min, 5 μM / inhibition at 30 min, 50 μM / potency estimated from few doses at 30 min: human. The source says: Fully confluent MDCK cell monolayers were transfected with either cDNA plasmids encoding the human transporter to be tested or a GFP control. […] The cells were then washed with ice-cold PBS and lysed with 50:50 acetonitrile:H2O. Intracellular content of the substrate was quantified by LC/MS/MS or a MicroBeta radiometric plate reader.

Data set [4] addresses T2, OCT2. As to the kind of experiment: Inhibition of OCT2-mediated oxaliplatin transport in 100% human serum or HBSS containing 4% BSA (IC50,app). The conditions noted are these: for fold higher potency for OCT2 over OCT1, OCT3, MATE1 and MATE2K in transporting oxaliplatin: from IC50,app of Table 4.
The target in another data set is T3, OCT3 (Homo sapiens, UniProt O75751).
T3 sequence (O75751 1-556): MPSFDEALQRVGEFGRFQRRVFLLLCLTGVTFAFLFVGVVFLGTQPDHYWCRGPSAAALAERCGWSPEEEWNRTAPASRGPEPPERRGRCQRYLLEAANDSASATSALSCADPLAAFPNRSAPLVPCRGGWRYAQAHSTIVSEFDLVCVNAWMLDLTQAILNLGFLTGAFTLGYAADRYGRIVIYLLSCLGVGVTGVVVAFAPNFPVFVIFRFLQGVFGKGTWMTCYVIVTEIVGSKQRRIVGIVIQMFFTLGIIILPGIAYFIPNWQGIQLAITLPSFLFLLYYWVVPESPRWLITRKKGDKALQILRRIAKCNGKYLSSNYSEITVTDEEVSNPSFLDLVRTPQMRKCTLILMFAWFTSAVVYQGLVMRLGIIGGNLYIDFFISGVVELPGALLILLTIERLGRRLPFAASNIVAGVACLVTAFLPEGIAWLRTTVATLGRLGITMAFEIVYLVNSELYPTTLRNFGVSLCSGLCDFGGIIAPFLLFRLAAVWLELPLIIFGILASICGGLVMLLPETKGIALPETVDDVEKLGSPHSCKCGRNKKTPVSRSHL
The experiment in a line: Inhibition of OCT3-mediated oxaliplatin transport in human serum or 4% BSA HBSS.

In data set [5] the target is T2, OCT2. As to the kind of experiment: Cmax,u/IC50 or Cmax/IC50,app ratio for clinically relevant inhibition of OCT2-mediated oxaliplatin uptake. The arrangement: expressed in transfected cells; host or cells: MDCK-II (Madin-Darby canine kidney type II). The text has this: The FDA has published guidance in predicting if a drug is likely to be a transporter inhibitor in clinics by using data attained in in vitro models. Cmax,u denotes the maximum free, unbound plasma concentration of a drug. […] Thus, characteristics of the in vitro model may be used to predict in vivo effectiveness.

In data set [6] the target is T2, OCT2. As to the kind of experiment: Inhibition of OCT2-mediated ASP+ uptake (Kido et al., Giacomini group). The conditions noted are these: human, cell line expressing human OCT2 (cell line not given), probe ASP+ 5 μM.
Setting [7] is: read-out: Plasma peak total concentration Cmax, published clinical pharmacokinetic data.
The mark [8] stands for this setting: MDCK-II cells transfected with human OCT2, probe oxaliplatin 10 μM.
[9] abbreviates: IC50,app (μM), apparent inhibition constant in 100% human serum or HBSS containing 4% BSA, OCT2-mediated oxaliplatin uptake.
The mark [10] stands for this setting: OCT2 IC50, app (μM), 100% human serum or HBSS containing 4% BSA, 20 μM or 100 μM oxaliplatin.
[11] abbreviates: 600 mg dosed IV bolus (FIG. 1B).

By IC50 is commonly meant the concentration that inhibits the measured activity by half. Broadly, the inhibition is the change of the read-out against control, counted positive when it falls. For `C[C@@H]1CCO[C@H]2Cn3cc(C(=O)NCc4ccc(F)cc4F)c(=O)c(O)c3C(=O)N12` [Dolutegravir], the IC50 against OCT1 is more than 100 µM; against OCT2 [1] it was 0.54 ± 0.09 µM; on OCT2 [3], 0.2 µM; at OCT2 [4] (setting [9]), 3.37 µM; against OCT2 [4] (setting [10]), 3.4 ± 1 µM; on OCT3, more than 100 µM. In addition, the “Mean Cmax” value in data set [2] (50 mg po qd, day 10) was 6160 ng/mL; in data set [2] (50 mg po qd, single dose) it was 4560 ng/mL. Moreover, the “Mean T1/2” value in data set [2] (50 mg po qd, day 10) was approximately 15 h; in data set [2] (50 mg po qd, single dose), 14.2 h. The “Plasma protein binding (%)” value in data set [2] is 99.5%. Also, the Cmax in data set [2] (read-out: Mean Cmax, 50 mg po qd, day 10) is 14.7 µM; in data set [2] (read-out: Mean Cmax, 50 mg po qd, single dose), 10.9 µM; in data set [2] (setting [7]) it was 10.9 µM. Besides, at OCT2 [3] (setting [8]), the inhibition at 30 min, 5 μM came out at 83%. For the same compound, the inhibition at 30 min, 50 μM on OCT2 [3] (setting [8]) was 97%. In addition, the potency estimated from few doses at 30 min at OCT2 [3] (setting [8]) is 0.2 µM. The “Cmax/IC50, app ratio” value at OCT2 [5] (50 mg po qd, day 10) is 4.36; at OCT2 [5] (50 mg po qd, single dose) it was 3.23.
With `COc1cc(OC)c(C(=O)CCCN2CCCC2)c(OC)c1` [Buflomedil, 4-pyrrolidin-1-yl-1-(2,4,6-trimethoxyphenyl)butan-1-one], on OCT2 [6], the potency estimated from few doses was less than 0.1 µM. Besides, the IC50 was found to be 34.6 ± 7.6 µM on OCT1; 5.7 ± 0.8 µM on OCT2 [1]; 0.78 µM against OCT2 [3]; 1.45 µM on OCT2 [4] (setting [9]); 1.4 ± 0.2 µM against OCT2 [4] (setting [10]); 28 ± 11.4 µM at OCT3. Also, the “Mean Cmax” value in data set [2] (300 mg po, bid) was 2100 ng/mL; in data set [2] (600 mg slow-release, po, qd), 2200 ng/mL. In addition, the “Mean T1/2” value in data set [2] (300 mg po, bid) was 3.4 h; in data set [2] (600 mg slow-release, po, qd), more than 10 h. The average clearance in data set [2] (Group A patients) was 292 mL/min; in data set [2] (Group B patients, seniors (average age 82 yrs) with impaired renal clearance) it was 99.5 mL/min. In data set [2], the “Plasma protein binding (%)” value is 70%. Also, the Cmax is 6.8 µM in data set [2] (read-out: Mean Cmax, 300 mg po, bid); 7.2 µM in data set [2] (read-out: Mean Cmax, 600 mg slow-release, po, qd); 6.8 µM in data set [2] (setting [7]). The inhibition at 30 min, 5 μM against OCT2 [3] is 87%. Further, the inhibition at 30 min, 50 μM on OCT2 [3] was 105%. For the same compound, the “fold higher potency for OCT2 over OCT1, OCT3, MATE1 and MATE2K in transporting oxaliplatin” value on OCT2 [4] is given as “at least 20 fold”. The “Cmax/IC50, app ratio” value on OCT2 [5] (300 mg po, bid) is recorded as 4.69; on OCT2 [5] (600 mg slow-release, po, qd), 4.97.
Consider `Clc1ccc(COC(Cn2ccnc2)c2ccc(Cl)cc2Cl)c(Cl)c1` (centres unmarked) [Miconazole], for which the potency estimated from few doses on OCT2 [6] was 2 µM. For the same compound, the IC50 against OCT1 was 8.4 ± 1.5 µM; at OCT2 [1], 142 µM; against OCT2 [3] it was 1.55 µM; on OCT2 [4] (setting [9]) it was 3.3 µM; on OCT2 [4] (setting [10]), 3.3 ± 0.6 µM; on OCT3 it was 49.2 ± 22.6 µM. In addition, at OCT2 [1] (comparison of Table 1 potencies), the “fold less potent in inhibiting OCT2-mediated metformin transport than ASP+ and oxaliplatin transport” value is recorded as “approximately 70 fold”. In data set [2] (setting [11]), the “decrease of plasma concentration at 3 hour” value is on record as “nearly five-fold decrease at 3 hour”. In addition, the “plasma half-time (initial phase)” value in data set [2] (setting [11]) is 0.4 h. In addition, in data set [2] (800 mg IV), the “Mean Cmax” value is 5000 ng/mL. In addition, the “Mean T1/2 (hour), distribution phase” value in data set [2] (800 mg IV) was 0.4 (dis- hour. In addition, the “Mean T1/2 (hour), terminal phase” value in data set [2] (800 mg IV) is “phase), 8.9 hour”. Besides, the “Plasma protein binding (%)” value in data set [2] is 92%. Also, the Cmax in data set [2] (read-out: Mean Cmax, 800 mg IV) was 12 µM; in data set [2] (setting [7]), 14.9 µM. The inhibition at 30 min, 5 μM at OCT2 [3] came out at 39%. Also, the inhibition at 30 min, 50 μM against OCT2 [3] was 97%. Also, the potency estimated from few doses at 30 min at OCT2 [3] (IC50 (μM) (substrate Oxaliplatin)) was 1.55 µM. On OCT2 [4], the “fold higher potency for OCT2 over OCT1, OCT3, MATE1 and MATE2K in transporting oxaliplatin” value is reported as “at least 2 fold”. Besides, at OCT2 [5] (800 mg IV), the “Cmax/IC50, app ratio” value is 3.64.
